Data on eight compounds can be found in patent US9809623B2, “α4β7 peptide monomer and dimer antagonists” (Protagonist Therapeutics, Inc., priority 2014, dated 2017).

In data set [1] the target is α4β7 (Homo sapiens, UniProt P13612+P26010). The data set is described as follows: α4β7-MAdCAM Cell Adhesion Assay (RPMI 8866 human cells). It counts as cell-based. Also on record: host or cells: RPMI 8866 human B lymphoblastoid cells. Conditions: Table 3-B, Potency (α4β7); range classes; read-out: α4β7 cell (Hu) IC50. The method, boiled down: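 Washed RPMI 8866 cells (200,000/well) in DMEM with 0.1% BSA, 10 mM HEPES pH 7, 1 mM MnCl2 adhered to rh MAdCAM-1/Fc-coated wells with serially diluted peptides, 30-45 min at 37 °C. After three washes, bound cells quantified by MTT, A570, cell-free background subtracted for dose response.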
Chain of α4β7 (P13612 34-1032): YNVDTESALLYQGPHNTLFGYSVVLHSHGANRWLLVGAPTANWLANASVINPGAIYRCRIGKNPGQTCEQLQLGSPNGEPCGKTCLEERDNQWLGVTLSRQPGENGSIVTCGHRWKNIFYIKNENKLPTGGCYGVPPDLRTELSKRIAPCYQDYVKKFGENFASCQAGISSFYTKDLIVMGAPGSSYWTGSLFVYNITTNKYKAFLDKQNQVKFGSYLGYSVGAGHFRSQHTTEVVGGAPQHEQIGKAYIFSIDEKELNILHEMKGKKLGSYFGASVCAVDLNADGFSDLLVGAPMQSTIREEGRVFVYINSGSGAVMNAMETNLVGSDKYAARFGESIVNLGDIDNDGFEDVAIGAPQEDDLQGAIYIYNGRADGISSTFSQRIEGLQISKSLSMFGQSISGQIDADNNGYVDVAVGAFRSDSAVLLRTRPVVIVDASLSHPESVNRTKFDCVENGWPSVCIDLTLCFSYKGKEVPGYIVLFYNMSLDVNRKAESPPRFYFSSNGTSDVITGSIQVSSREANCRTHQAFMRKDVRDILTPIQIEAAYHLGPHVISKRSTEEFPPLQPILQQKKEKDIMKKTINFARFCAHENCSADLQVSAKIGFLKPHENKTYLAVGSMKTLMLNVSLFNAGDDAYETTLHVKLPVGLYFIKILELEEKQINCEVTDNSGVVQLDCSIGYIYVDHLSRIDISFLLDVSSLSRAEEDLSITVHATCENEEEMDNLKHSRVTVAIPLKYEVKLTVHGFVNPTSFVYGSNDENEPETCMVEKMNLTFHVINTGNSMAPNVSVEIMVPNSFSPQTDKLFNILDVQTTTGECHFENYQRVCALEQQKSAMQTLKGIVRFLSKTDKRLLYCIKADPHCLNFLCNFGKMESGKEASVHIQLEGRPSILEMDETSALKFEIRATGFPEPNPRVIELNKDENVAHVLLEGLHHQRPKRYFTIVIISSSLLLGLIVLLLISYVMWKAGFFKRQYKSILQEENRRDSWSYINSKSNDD
Chain of α4β7 (P26010 20-798): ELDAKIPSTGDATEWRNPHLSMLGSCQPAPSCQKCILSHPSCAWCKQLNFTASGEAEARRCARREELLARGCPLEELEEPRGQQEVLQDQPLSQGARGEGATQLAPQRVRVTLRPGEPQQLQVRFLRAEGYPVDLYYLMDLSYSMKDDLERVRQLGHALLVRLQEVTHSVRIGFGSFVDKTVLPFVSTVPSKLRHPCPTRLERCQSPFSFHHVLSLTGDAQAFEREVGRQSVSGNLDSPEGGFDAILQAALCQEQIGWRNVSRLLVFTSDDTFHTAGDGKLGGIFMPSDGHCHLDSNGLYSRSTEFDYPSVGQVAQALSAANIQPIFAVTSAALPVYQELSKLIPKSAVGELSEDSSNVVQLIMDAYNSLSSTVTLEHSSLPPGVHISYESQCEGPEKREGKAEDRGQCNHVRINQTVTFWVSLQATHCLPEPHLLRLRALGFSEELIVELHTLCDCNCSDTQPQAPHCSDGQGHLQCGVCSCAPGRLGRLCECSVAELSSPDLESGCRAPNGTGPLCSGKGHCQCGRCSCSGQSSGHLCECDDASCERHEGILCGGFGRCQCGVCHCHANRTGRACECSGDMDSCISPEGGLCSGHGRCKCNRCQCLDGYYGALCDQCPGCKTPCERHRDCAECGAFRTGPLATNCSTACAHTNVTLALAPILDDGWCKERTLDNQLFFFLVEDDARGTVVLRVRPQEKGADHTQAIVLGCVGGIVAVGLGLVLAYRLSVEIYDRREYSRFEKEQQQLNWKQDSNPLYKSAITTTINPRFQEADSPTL

A short description of data set [2]: Simulated Intestinal Fluid (SIF) Stability Assay. It counts as in vitro ADME, porcine. Conditions: pig, pH 6.5, Table 3-B. As for the experimental part: Studies were carried out in simulated intestinal fluid (SIF) to evaluate intestinal stability of the peptide molecules of the instant invention. To prepare the SIF reagent, blank FASSIF was prepared by dissolving 0.348 g NaOH, 3.954 g sodium phosphate monobasic monohydrate and 6.186 g NaCl in a final volume of 1 liter water (final pH=6.5). To this solution, 24 g porcine pancreatin (Sigma catalog P7545) was added and stirred for 30 minutes (final pancreatin concentration is 2.4%). The solution was filtered through a cheese cloth and a No. 1 Whatman filter, and 10 ml aliquots were stored at −70° C. To run the reaction, a 10 ml aliquot was thawed at 37° C., and 125 ul aliquots were removed and mixed with an equal volume of blank FASSIF. The peptide stock solution (10 mM in 100% DMSO) was diluted 75-fold in blank FASSIF. A 50 μl aliquot of the diluted peptide was combined with 125 μl pancreatin (2.4%) and 125 μl blank FASSIF to yield final concentrations of 1% pancreatin and 22 μM peptide. The reactions were incubated at 37° C., and at various time points 50 μl aliquots were removed and added to 200 μl of quench solution containing 50% acetonitrile, 50% methanol, 5% formic acid, and 1 μg/ml internal standard. The quenched samples were centrifuged at 10,000 rpm for 10 minutes, and the supernatants were analyzed by LCMS/MS. The percent remaining at each time point was calculated based on the peak area response ratio of test to compound to internal standard. Half-lives were calculated by fitting to a first-order exponential decay equation using GraphPad.

Setting [3] is: simulated intestinal fluid (SIF) with 1% porcine pancreatin, > means experiment was stopped at that time and half life was not reached, read-out: Stabilty SIF t1/2.
[4] abbreviates: simulated intestinal fluid (SIF) with porcine pancreatin, > means experiment was stopped at that time and half life was not reached, read-out: Stabilty SIF t1/2.
The mark [5] stands for this setting: simulated intestinal fluid (SIF) with porcine pancreatin, alone or in parentheses after >360, read-out: Stabilty SIF t1/2, in hr (converted).

Each structure is given as a SMILES string. Read-outs that look alike come from different tables or passages of the source. Numbered stars: 1 amine (or outer) side, 2 acyl side, 3 side chain; on linkers, the order of the positions; unused ones are H or OH. Bridge positions count the residues as written; N and C are the ends. Square brackets hold non-standard residues; d marks the D form. Peptide text beside a SMILES is read from it. I, II: the chains in the order shown. Phe(4-CF3) = N[C@@H](Cc1ccc(C(F)(F)F)cc1)C(=O)O; Phe(4-tBu) = CC(C)(C)c1ccc(C[C@H](N)C(=O)O)cc1; 2Nal = N[C@@H](Cc1ccc2ccccc2c1)C(=O)O; Diglycolyl = O=C(COCC(=O)[*:2])[*:1]; NMeR = CN[C@@H](CCCNC(=N)N)C(=O)O; NMeK = CN[C@@H](CCCCN)C(=O)O; Pen = CC(C)(S)[C@H](N)C(=O)O; dNMeK = CN[C@H](CCCCN)C(=O)O Some results are limits rather than exact numbers.

With `CC(=O)N[C@@H]1C(=O)N(C)[C@@H](CCCNC(=N)N)C(=O)N[C@@H](CO)C(=O)N[C@@H](CC(=O)O)C(=O)N[C@@H]([C@@H](C)O)C(=O)N[C@@H](CC(C)C)C(=O)N[C@H](C(=O)N[C@@H](Cc2c[nH]c3ccccc23)C(=O)N(C)[C@@H](CCCCNC(=O)COCC(=O)NCCCC[C@@H](C(N)=O)N(C)C(=O)[C@H](Cc2c[nH]c3ccccc23)NC(=O)[C@H]2NC(=O)[C@H](CC(C)C)NC(=O)[C@H]([C@@H](C)O)NC(=O)[C@H](CC(=O)O)NC(=O)[C@H](CO)NC(=O)[C@H](CCCNC(=N)N)N(C)C(=O)[C@@H](NC(C)=O)C(C)(C)SSC2(C)C)C(N)=O)C(C)(C)SSC1(C)C` [compound 77] (I: Ac-[Pen][NMeR]SDTL[Pen]W[NMeK]-NH2 / II: Ac-[Pen][NMeR]SDTL[Pen]W[NMeK]-NH2; disulfide I:1-I:7, II:1-II:7; linker I:9-II:9 via Diglycolyl), the IC50 in data set [1] lay in the range of 100 to 500 nM. Also, the half-life at 22 μM in data set [2] (setting [3]) was more than 180 min. `CC(=O)N[C@@H]1C(=O)N(C)[C@@H](CCCNC(=N)N)C(=O)N[C@@H](CO)C(=O)N[C@@H](CC(=O)O)C(=O)N[C@@H]([C@@H](C)O)C(=O)N[C@@H](CC(C)C)C(=O)N[C@H](C(=O)N[C@@H](Cc2ccc3ccccc3c2)C(=O)N[C@H](CCC(=O)O)C(=O)N(C)[C@H](CCCCNC(=O)COCC(=O)NCCCC[C@H](C(N)=O)N(C)C(=O)[C@@H](CCC(=O)O)NC(=O)[C@H](Cc2ccc3ccccc3c2)NC(=O)[C@H]2NC(=O)[C@H](CC(C)C)NC(=O)[C@H]([C@@H](C)O)NC(=O)[C@H](CC(=O)O)NC(=O)[C@H](CO)NC(=O)[C@H](CCCNC(=N)N)N(C)C(=O)[C@@H](NC(C)=O)C(C)(C)SSC2(C)C)C(N)=O)C(C)(C)SSC1(C)C` [compound 39] (I: Ac-[Pen][NMeR]SDTL[Pen][2Nal][dE][dNMeK]-NH2 / II: Ac-[Pen][NMeR]SDTL[Pen][2Nal][dE][dNMeK]-NH2; disulfide I:1-I:7, II:1-II:7; linker I:10-II:10 via Diglycolyl): in data set [1], the half-inhibitory concentration (IC50) fell in the range of 10 to 25 nM. For the same compound, in data set [2] (setting [3]), the half-life at 22 μM is more than 180 min. Consider `CC(=O)N[C@@H]1C(=O)N(C)[C@@H](CCCNC(=N)N)C(=O)N[C@@H](CO)C(=O)N[C@@H](CC(=O)O)C(=O)N[C@@H]([C@@H](C)O)C(=O)N[C@@H](CC(C)C)C(=O)N[C@H](C(=O)N[C@@H](Cc2ccc(C(F)(F)F)cc2)C(=O)N[C@H](CCC(=O)O)C(=O)N[C@H](CCCCNC(=O)COCC(=O)NCCCC[C@@H](NC(=O)[C@@H](CCC(=O)O)NC(=O)[C@H](Cc2ccc(C(F)(F)F)cc2)NC(=O)[C@H]2NC(=O)[C@H](CC(C)C)NC(=O)[C@H]([C@@H](C)O)NC(=O)[C@H](CC(=O)O)NC(=O)[C@H](CO)NC(=O)[C@H](CCCNC(=N)N)N(C)C(=O)[C@@H](NC(C)=O)C(C)(C)SSC2(C)C)C(N)=O)C(N)=O)C(C)(C)SSC1(C)C` [compound 3] (I: Ac-[Pen][NMeR]SDTL[Pen][Phe(4-CF3)][dE][dK]-NH2 / II: Ac-[Pen][NMeR]SDTL[Pen][Phe(4-CF3)][dE][dK]-NH2; disulfide I:1-I:7, II:1-II:7; linker I:10-II:10 via Diglycolyl), for which, in data set [2] (setting [4]), the half-life at 22 μM is more than 180 min. The same measure, in the same setting: in the case of `CC(=O)N[C@@H]1CCCCNC(=O)COCC(=O)NCCCC[C@@H](NC(C)=O)C(=O)N[C@H]2CSSC[C@H](NC(=O)[C@H](CC(C)C)NC(=O)[C@H]([C@@H](C)O)NC(=O)[C@H](CC(=O)O)NC(=O)[C@H](CO)NC(=O)[C@H](CCCNC(=N)N)N(C)C2=O)C(=O)N[C@@H](Cc2c[nH]c3ccccc23)C(=O)N[C@@H](C(N)=O)CCCCNC(=O)COCC(=O)NCCCC[C@H](C(N)=O)NC(=O)[C@H](Cc2c[nH]c3ccccc23)NC(=O)[C@@H]2CSSC[C@H](NC1=O)C(=O)N(C)[C@@H](CCCNC(=N)N)C(=O)N[C@@H](CO)C(=O)N[C@@H](CC(=O)O)C(=O)N[C@@H]([C@@H](C)O)C(=O)N[C@@H](CC(C)C)C(=O)N2` [compound 5] (I: Ac-[dK]C[NMeR]SDTLCW[dK]-NH2 / II: Ac-[dK]C[NMeR]SDTLCW[dK]-NH2; linker I:1-II:1, I:10-II:10 via Diglycolyl; disulfide I:2-I:8, II:2-II:8) it was 6 min.

`CC(=O)N[C@@H]1C(=O)N(C)[C@@H](CCCNC(=N)N)C(=O)N[C@@H](CO)C(=O)N[C@@H](CC(=O)O)C(=O)N[C@@H]([C@@H](C)O)C(=O)N[C@@H](CC(C)C)C(=O)N[C@H](C(=O)N[C@@H](Cc2ccc(C(C)(C)C)cc2)C(=O)N[C@@H](CCC(=O)O)C(=O)N(C)[C@@H](CCCCNC(=O)COCC(=O)NCCCC[C@@H](C(N)=O)N(C)C(=O)[C@H](CCC(=O)O)NC(=O)[C@H](Cc2ccc(C(C)(C)C)cc2)NC(=O)[C@H]2NC(=O)[C@H](CC(C)C)NC(=O)[C@H]([C@@H](C)O)NC(=O)[C@H](CC(=O)O)NC(=O)[C@H](CO)NC(=O)[C@H](CCCNC(=N)N)N(C)C(=O)[C@@H](NC(C)=O)C(C)(C)SSC2(C)C)C(N)=O)C(C)(C)SSC1(C)C` [compound 133] (I: Ac-[Pen][NMeR]SDTL[Pen][Phe(4-tBu)]E[NMeK]-NH2 / II: Ac-[Pen][NMeR]SDTL[Pen][Phe(4-tBu)]E[NMeK]-NH2; disulfide I:1-I:7, II:1-II:7; linker I:10-II:10 via Diglycolyl): the half-life at 22 μM in data set [2] (setting [4]) was more than 360 min; in data set [2] (setting [5]), 660 min. Taken in the same sequence, the figures for `CC(=O)N[C@@H]1C(=O)N(C)[C@@H](CCCNC(=N)N)C(=O)N[C@@H](CO)C(=O)N[C@@H](CC(=O)O)C(=O)N[C@@H]([C@@H](C)O)C(=O)N[C@@H](CC(C)C)C(=O)N[C@H](C(=O)N[C@@H](Cc2ccc(C(C)(C)C)cc2)C(=O)N[C@@H](CCC(=O)O)C(=O)N[C@H](CCCCNC(=O)COCC(=O)NCCCC[C@@H](NC(=O)[C@H](CCC(=O)O)NC(=O)[C@H](Cc2ccc(C(C)(C)C)cc2)NC(=O)[C@H]2NC(=O)[C@H](CC(C)C)NC(=O)[C@H]([C@@H](C)O)NC(=O)[C@H](CC(=O)O)NC(=O)[C@H](CO)NC(=O)[C@H](CCCNC(=N)N)N(C)C(=O)[C@@H](NC(C)=O)C(C)(C)SSC2(C)C)C(N)=O)C(N)=O)C(C)(C)SSC1(C)C` [compound 131] (I: Ac-[Pen][NMeR]SDTL[Pen][Phe(4-tBu)]E[dK]-NH2 / II: Ac-[Pen][NMeR]SDTL[Pen][Phe(4-tBu)]E[dK]-NH2; disulfide I:1-I:7, II:1-II:7; linker I:10-II:10 via Diglycolyl) were more than 360 min and 540 min. With `CC(=O)N[C@@H]1C(=O)N(C)[C@@H](CCCNC(=N)N)C(=O)N[C@@H](CO)C(=O)N[C@@H](CC(=O)O)C(=O)N[C@@H]([C@@H](C)O)C(=O)N[C@@H](CC(C)C)C(=O)N[C@H](C(=O)N[C@@H](Cc2ccc(C(C)(C)C)cc2)C(=O)N[C@@H](CCC(=O)O)CC(=O)N[C@H](CCCCNC(=O)CN(CC(=O)NCCCC[C@@H](NC(=O)C[C@H](CCC(=O)O)NC(=O)[C@H](Cc2ccc(C(C)(C)C)cc2)NC(=O)[C@H]2NC(=O)[C@H](CC(C)C)NC(=O)[C@H]([C@@H](C)O)NC(=O)[C@H](CC(=O)O)NC(=O)[C@H](CO)NC(=O)[C@H](CCCNC(=N)N)N(C)C(=O)[C@@H](NC(C)=O)C(C)(C)SSC2(C)C)C(N)=O)C(=O)CCNC(=O)CCCCCC2(C)C(=CC=CC=CC3=[N+](CCCS(=O)(=O)[O-])c4ccc(S(=O)(=O)O)cc4C3(C)C)N(CCCS(=O)(=O)O)c3ccc(S(=O)(=O)O)cc32)C(N)=O)C(C)(C)SSC1(C)C` (single isomer, unassigned) [compound 183], the half-life at 22 μM is more than 180 min in data set [2] (setting [4]) and 466 min in data set [2] (simulated intestinal fluid (SIF) with porcine pancreatin, in parentheses after >180, read-out: Stabilty SIF t1/2, value in parentheses). Regarding `CC(=O)N[C@@H]1C(=O)N(C)[C@@H](CCCNC(=N)N)C(=O)N[C@@H](CO)C(=O)N[C@@H](CC(=O)O)C(=O)N[C@@H]([C@@H](C)O)C(=O)N[C@@H](CC(C)C)C(=O)N[C@H](C(=O)N[C@@H](Cc2ccc(C(C)(C)C)cc2)C(=O)N[C@@H](CCC(=O)O)CC(=O)N[C@H](CCCCNC(=O)CN(CC(=O)NCCCC[C@@H](NC(=O)C[C@H](CCC(=O)O)NC(=O)[C@H](Cc2ccc(C(C)(C)C)cc2)NC(=O)[C@H]2NC(=O)[C@H](CC(C)C)NC(=O)[C@H]([C@@H](C)O)NC(=O)[C@H](CC(=O)O)NC(=O)[C@H](CO)NC(=O)[C@H](CCCNC(=N)N)N(C)C(=O)[C@@H](NC(C)=O)C(C)(C)SSC2(C)C)C(N)=O)C(=O)CCNC(=O)c2ccc(-c3c4ccc(=N)c(S(=O)(=O)O)c-4oc4c(S(=O)(=O)O)c(N)ccc34)c(C(=O)O)c2)C(N)=O)C(C)(C)SSC1(C)C` [compound 182], in data set [2] (setting [4]), the half-life at 22 μM is more than 180 min.

The term IC50 denotes the midpoint of a concentration-inhibition curve.
